Results as given in patent publication US20170008888A1 (KYORIN PHARMACEUTICAL CO., LTD., priority 2014, published 2017).
Read-outs that look alike come from different tables or passages of the source.

Legend:
Assay type in all cases: binding
ERK5 = biological target: T1, ERK5 (Homo sapiens, UniProt Q13164); assay: Probe-based (AX9989 acyl phosphate ATP probe) kinase profiling in Jurkat lysate: ERK5; conditions: for IC50: Jurkat lysate; for inhibition at 0.1 µM: screening concentration 0.1 μM
T1 construct: screened for activity against several kinases in Jurkat cells; endogenous in cells; host or cells: Jurkat cell lysate
T1 sequence (Q13164 whole entry): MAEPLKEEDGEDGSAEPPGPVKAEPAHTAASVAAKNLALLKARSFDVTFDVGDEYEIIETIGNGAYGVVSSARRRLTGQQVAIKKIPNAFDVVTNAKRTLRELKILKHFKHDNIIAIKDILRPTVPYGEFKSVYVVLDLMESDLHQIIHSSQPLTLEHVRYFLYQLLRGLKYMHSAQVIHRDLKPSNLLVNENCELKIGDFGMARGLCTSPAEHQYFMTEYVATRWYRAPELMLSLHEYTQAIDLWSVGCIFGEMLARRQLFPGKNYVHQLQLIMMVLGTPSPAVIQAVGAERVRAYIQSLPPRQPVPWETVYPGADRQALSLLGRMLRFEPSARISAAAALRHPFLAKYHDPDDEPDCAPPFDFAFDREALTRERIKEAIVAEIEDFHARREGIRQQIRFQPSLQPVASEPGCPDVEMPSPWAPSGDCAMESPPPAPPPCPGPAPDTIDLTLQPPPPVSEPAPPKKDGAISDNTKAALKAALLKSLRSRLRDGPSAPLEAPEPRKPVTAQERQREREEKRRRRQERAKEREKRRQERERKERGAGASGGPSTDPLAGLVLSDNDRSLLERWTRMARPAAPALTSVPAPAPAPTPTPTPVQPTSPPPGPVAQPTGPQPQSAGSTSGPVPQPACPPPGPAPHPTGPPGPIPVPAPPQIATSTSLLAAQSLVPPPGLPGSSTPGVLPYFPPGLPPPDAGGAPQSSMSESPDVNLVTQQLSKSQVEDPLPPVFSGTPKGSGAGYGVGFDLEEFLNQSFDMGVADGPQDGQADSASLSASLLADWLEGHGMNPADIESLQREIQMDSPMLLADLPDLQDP
How it was run: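 ERK5 IC50 values came from percent inhibition at the screening concentration, measured as loss of LC/MS signal of probe-labelled active-site peptides. Compound was added for 15 min at room temperature to Jurkat lysate (5 mg/ml, 20 mM MnCl2) before labelling with AX9989 ATP acyl phosphate probe at 5 μM.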

AMPKa1 or AMPKa2 = assay: Probe-based (AX9989) kinase profiling in Jurkat lysate: AMPKa1 or AMPKa2
How it was run: (§1)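 Jurkat lysate (50 mM HEPES pH 7.5, 150 mM NaCl, 0.1% Triton X-100, 20 mM MnCl2) pre-incubated 15 min with compound at room temperature, then labeled with 5 μM acyl phosphate ATP probe AX9989. Tryptic probe-labeled peptides streptavidin-captured and quantified by LC/MS; percent inhibition from decreased fragment intensity versus untreated.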

TAO2 = biological target: T2, TAO2 (Homo sapiens, UniProt Q9UL54); assay: Probe-based (AX9989) kinase profiling in Jurkat lysate: TAO2; conditions: for inhibition at 0.1 µM: screening concentration 0.1 μM
T2 construct: screened for activity against several kinases in Jurkat cells; endogenous in cells; host or cells: Jurkat cell lysate
T2 sequence (Q9UL54 1-1235): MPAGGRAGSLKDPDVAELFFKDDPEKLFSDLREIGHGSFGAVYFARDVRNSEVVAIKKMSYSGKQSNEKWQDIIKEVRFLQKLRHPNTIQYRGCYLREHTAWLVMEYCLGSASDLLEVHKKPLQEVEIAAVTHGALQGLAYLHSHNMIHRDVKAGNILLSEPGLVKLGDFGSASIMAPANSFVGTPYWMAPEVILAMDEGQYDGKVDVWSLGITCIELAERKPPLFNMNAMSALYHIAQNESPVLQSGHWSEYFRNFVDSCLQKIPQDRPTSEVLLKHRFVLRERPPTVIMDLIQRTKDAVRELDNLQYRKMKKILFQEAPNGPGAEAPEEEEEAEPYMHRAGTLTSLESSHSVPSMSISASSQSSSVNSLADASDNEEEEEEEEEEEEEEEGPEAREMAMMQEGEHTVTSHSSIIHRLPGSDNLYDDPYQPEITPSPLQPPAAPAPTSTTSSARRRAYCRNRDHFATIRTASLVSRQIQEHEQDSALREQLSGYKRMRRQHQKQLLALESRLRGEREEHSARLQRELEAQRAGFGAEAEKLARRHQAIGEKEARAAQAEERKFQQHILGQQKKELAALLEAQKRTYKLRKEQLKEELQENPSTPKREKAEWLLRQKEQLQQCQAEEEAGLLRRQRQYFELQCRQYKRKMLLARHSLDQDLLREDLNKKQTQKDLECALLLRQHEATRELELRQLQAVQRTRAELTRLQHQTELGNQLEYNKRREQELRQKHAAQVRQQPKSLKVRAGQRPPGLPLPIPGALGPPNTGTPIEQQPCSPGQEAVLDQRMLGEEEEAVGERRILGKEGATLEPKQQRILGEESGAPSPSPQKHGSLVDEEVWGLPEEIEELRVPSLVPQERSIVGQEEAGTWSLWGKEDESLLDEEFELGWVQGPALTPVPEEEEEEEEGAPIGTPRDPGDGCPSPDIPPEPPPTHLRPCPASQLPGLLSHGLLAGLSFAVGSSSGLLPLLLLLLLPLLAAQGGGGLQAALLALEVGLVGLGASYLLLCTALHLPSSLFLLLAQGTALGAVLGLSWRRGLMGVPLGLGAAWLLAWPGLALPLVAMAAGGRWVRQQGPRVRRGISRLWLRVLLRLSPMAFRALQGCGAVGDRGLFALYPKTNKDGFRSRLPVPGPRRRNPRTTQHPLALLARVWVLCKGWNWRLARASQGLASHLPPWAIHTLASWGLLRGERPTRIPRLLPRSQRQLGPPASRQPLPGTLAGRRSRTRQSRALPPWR
How it was run: as §1

AurA = biological target: T3, AurA (Homo sapiens, UniProt O14965); assay: Probe-based (AX9989) kinase profiling in Jurkat lysate: AurA; conditions: for inhibition at 0.1 µM: screening concentration 0.1 μM
T3 construct: screened for activity against several kinases in Jurkat cells; endogenous in cells; host or cells: Jurkat cell lysate
T3 sequence (O14965 1-403): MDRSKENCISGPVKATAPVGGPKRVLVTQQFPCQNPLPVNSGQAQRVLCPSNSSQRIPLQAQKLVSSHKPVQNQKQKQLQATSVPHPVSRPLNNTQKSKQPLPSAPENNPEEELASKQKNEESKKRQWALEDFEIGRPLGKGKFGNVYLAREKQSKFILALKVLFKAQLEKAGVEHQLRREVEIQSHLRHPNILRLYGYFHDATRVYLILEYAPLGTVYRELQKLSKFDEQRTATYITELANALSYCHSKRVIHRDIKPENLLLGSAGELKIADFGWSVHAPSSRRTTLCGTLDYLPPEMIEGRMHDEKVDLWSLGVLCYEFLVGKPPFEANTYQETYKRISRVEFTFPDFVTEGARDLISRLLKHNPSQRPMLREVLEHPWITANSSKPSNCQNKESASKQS
How it was run: as §1

[1] = calculated from percent inhibition of AX9989 labeling and the screening concentration
[2] = read-out: Kinase inhibition % at indicated screening concentration: ERK5
[3] = read-out: Kinase inhibition % at indicated screening concentration: TAO2
[4] = read-out: Kinase inhibition % at indicated screening concentration: AurA
[5] = screening concentration 1.0 μM, read-out: Kinase inhibition % at indicated screening concentration: ERK5
[6] = screening concentration 1.0 μM, read-out: Kinase inhibition % at indicated screening concentration: TAO2
[7] = screening concentration 1.0 μM, read-out: Kinase inhibition % at indicated screening concentration: AurA

Compound	IC50 (ERK5; [1]) [nM]	inhibition at 1 µM (ERK5; [5]) [%]	Kinase inhibition % at indicated screening concentration: AMPKa1 or AMPKa2 (AMPKa1 or AMPKa2; screening concentration 1.0 μM)	inhibition at 1 µM (TAO2; [6]) [%]	inhibition at 1 µM (AurA; [7]) [%]	further results
CCOc1cc(C(=O)N2CCC[C@H](O)C2)ccc1Nc1cc2c(cn1)N(C)C(=O)c1ccccc1N2C [Compound 96]	≤ 50	–	–	–	–	inhibition at 0.1 µM (ERK5; [2]): > 90%; Kinase inhibition % at indicated screening concentration: AMPKa1 or AMPKa2 (AMPKa1 or AMPKa2; screening concentration 0.1 μM): E (E is ≦35%); inhibition at 0.1 µM (TAO2; [3]): ≤ 35%; inhibition at 0.1 µM (AurA; [4]): ≤ 35%
CCOc1cc(C(=O)N[C@H]2CCCOC2)ccc1Nc1cc2c(cn1)N(C)C(=O)c1ccccc1N2C [Compound 100]	> 500	50 to 75	E (E is ≦35%)	≤ 35	≤ 35	–
CCOc1cc(C(=O)NCCOCCO)ccc1Nc1cc2c(cn1)N(C)C(=O)c1ccccc1N2C [Compound 101]	101 to 500	75 to 90	E (E is ≦35%)	≤ 35	≤ 35	–
CN1C(=O)c2ccccc2N(C)c2cc(NC3CCOCC3)ncc21 [Compound 102]	101 to 500	75 to 90	E (E is ≦35%)	≤ 35	≤ 35	–
CCOc1cc(C(=O)NCCN(CC)CC)ccc1Nc1cc2c(cn1)N(C)C(=O)c1ccccc1N2C [Compound 103]	≤ 50	–	–	–	–	inhibition at 0.1 µM (ERK5; [2]): > 90%; Kinase inhibition % at indicated screening concentration: AMPKa1 or AMPKa2 (AMPKa1 or AMPKa2; screening concentration 0.1 μM): E (E is ≦35%); inhibition at 0.1 µM (TAO2; [3]): ≤ 35%; inhibition at 0.1 µM (AurA; [4]): ≤ 35%
CCOc1cc(C(=O)NCCN2CCCC2)ccc1Nc1cc2c(cn1)N(C)C(=O)c1ccccc1N2C [Compound 105]	101 to 500	75 to 90	E (E is ≦35%)	≤ 35	≤ 35	–
Cc1cc(CN2CCCC2)ccc1Nc1cc2c(cn1)N(C)C(=O)c1ccccc1N2C [Compound 106, 5,11-dimethyl-3-(2-methyl-4-(pyrrolidin-1-ylmethyl)phenylamino)-5H-benzo[e]pyrido[3,4-b][1,4]diazepin-10(11H)-one]	≤ 50	> 90	E (E is ≦35%)	50 to 75	≤ 35	–
CCOc1cc(C(=O)NCCc2ccncc2)ccc1Nc1cc2c(cn1)N(C)C(=O)c1ccccc1N2C [Compound 107]	> 500	50 to 75	E (E is ≦35%)	≤ 35	≤ 35	–
CCOc1cc(C(=O)N2CCN(CC)CC2)ccc1Nc1cc2c(cn1)N(C)C(=O)c1ccccc1N2C [Compound 108]	≤ 50	> 90	E (E is ≦35%)	≤ 35	≤ 35	–
CN1C(=O)c2ccccc2N(C)c2cc(Nc3ccc(C(=O)N4CC[C@@H](N(C)C)C4)cc3F)ncc21 [Compound 110]	≤ 50	–	–	–	–	inhibition at 10 µM (ERK5; screening concentration 10.0 μM, read-out: Kinase inhibition % at indicated screening concentration: ERK5): > 90%; Kinase inhibition % at indicated screening concentration: AMPKa1 or AMPKa2 (AMPKa1 or AMPKa2; screening concentration 10.0 μM): E (E is ≦35%); inhibition at 10 µM (TAO2; screening concentration 10.0 μM, read-out: Kinase inhibition % at indicated screening concentration: TAO2): 50 to 75%; inhibition at 10 µM (AurA; screening concentration 10.0 μM, read-out: Kinase inhibition % at indicated screening concentration: AurA): 35 to 50%
CCOc1cc(C(=O)N2CCOCC2)ccc1Nc1cc2c(cn1)N(C)C(=O)c1ccccc1N2C [Compound 111]	≤ 50	≤ 35	E (E is ≦35%)	≤ 35	≤ 35	–
CCOc1cc(C(=O)N2CC(N3CCCCC3)C2)ccc1Nc1cc2c(cn1)N(C)C(=O)c1ccccc1N2C [Compound 114]	≤ 50	–	–	–	–	inhibition at 0.1 µM (ERK5; [2]): > 90%; Kinase inhibition % at indicated screening concentration: AMPKa1 or AMPKa2 (AMPKa1 or AMPKa2; screening concentration 0.1 μM): E (E is ≦35%); inhibition at 0.1 µM (TAO2; [3]): ≤ 35%; inhibition at 0.1 µM (AurA; [4]): ≤ 35%
CCOc1cc(C(=O)N2CC[C@@H](N(C)C)C2)ccc1Nc1cc2c(cn1)N(C)C(=O)c1ccccc1N2C [Compound 115]	≤ 50	> 90	E (E is ≦35%)	≤ 35	≤ 35	–
CCOc1cc(C(=O)N2CCC(CN3CCOCC3)CC2)ccc1Nc1cc2c(cn1)N(C)C(=O)c1ccccc1N2C [Compound 120]	≤ 50	> 90	E (E is ≦35%)	≤ 35	≤ 35	–
CCOc1cc(C(=O)N(CC)CCN(CC)CC)ccc1Nc1cc2c(cn1)N(C)C(=O)c1ccccc1N2C [Compound 122]	≤ 50	> 90	E (E is ≦35%)	≤ 35	≤ 35	–
CCOc1cc(C(=O)N2CCC(NC(C)C)C2)ccc1Nc1cc2c(cn1)N(C)C(=O)c1ccccc1N2C (centres unmarked) [Compound T4]	–	–	–	–	–	IC50 (ERK5; calculated from percent inhibition and screening concentration, AX9989 probe): ≤ 50 nM; inhibition at 1 µM (ERK5; screening concentration 1 μM, read-out: ERK5 Inhibition % at indicated screening concentration): > 90%; AMPKa1 or AMPKa2 Inhibition % at indicated screening concentration (AMPKa1 or AMPKa2; screening concentration 1 μM): E (E is ≦35%); inhibition at 1 µM (TAO2; screening concentration 1 μM, read-out: TAO2 Inhibition % at indicated screening concentration): ≤ 35%; inhibition at 1 µM (AurA; screening concentration 1 μM, read-out: AurA Inhibition % at indicated screening concentration): ≤ 35%
